The results in this text go back to patent US20170325459A1, “BICYCLIC COMPOUNDS AS PEST CONTROL AGENTS” (Bayer CropScience Aktiengesellschaft, priority 2014, published 2017).

Usually chromatographic logP stands for a lipophilicity value derived from retention on a column. A higher chromatographic logP goes with a more lipophilic compound.

Data set [1] in a line: log P by HPLC (OECD Guideline 117), method [b] neutral range pH 7.8. Type of data set: physicochemical. The conditions noted are these: for chromatographic logP: reversed-phase (RP) C18 HPLC column. As for the experimental part: (§1) The log P values were determined in accordance with OECD Guideline 117 (EC Directive 92/69/EEC) by HPLC (high-performance liquid chromatography) using reversed-phase (RP) columns (C18), by the following methods: [a] The LC-MS determination in the acidic range is carried out at pH 2.7 with 0.1% aqueous formic acid and acetonitrile (contains 0.1% formic acid) as eluents; linear gradient from 10% acetonitrile to 95% acetonitrile. [b] LC-MS determination in the neutral range is effected at pH 7.8 with 0.001 molar aqueous ammonium hydrogencarbonate solution and acetonitrile as eluents; linear gradient from 10% acetonitrile to 95% acetonitrile. Calibration is effected using unbranched alkan-2-ones (having 3 to 16 carbon atoms) with known log P values (log P values determined on the basis of the retention times by linear interpolation between two successive alkanones).

The nature of data set [2]: log P by HPLC (OECD Guideline 117), method [a] acidic range pH 2.7. The conditions noted are these: for chromatographic logP: reversed-phase (RP) C18 HPLC column. Type of data set: physicochemical. The procedure: as §1
The next data set concerns Myzus persicae. The data set can be described thus: Myzus persicae spray test. To be noted: application rate 500 g/ha, Chinese cabbage leaf discs, after 6 days. Type of data set: in vivo. The procedure:
Myzus persicae—Spray Test Solvent: 78 parts by weight of acetone • • 1.5 parts by weight of dimethylformamide Emulsifier: alkylaryl polyglycol ether To produce a suitable active ingredient formulation, 1 part by weight of active ingredient is dissolved using the specified parts by weight of solvent and made up with water containing an emulsifier concentration of 1000 ppm until the desired concentration is attained. To produce further test concentrations, the formulation is diluted with emulsifier-containing water. Discs of Chinese cabbage leaves (Brassica pekinensis) infested by all stages of the green peach aphid (Myzus persicae) are sprayed with an active ingredient formulation of the desired concentration. After 6 days, the efficacy in % is determined. 100% means that all the aphids have been killed and 0% means that none of the aphids have been killed.

Turning to `c1ccc(-c2ccc3nc(-c4cccnc4)sc3c2)cc1` [compound 1], in data set [1], the “logP[b]” value amounted to 3.87. Moreover, the “logP[a]” value in data set [2] is 3.7.
Regarding `c1ccc(Nc2ccc3nc(-c4cccnc4)sc3c2)nc1` [compound 24, N-(Pyridin-2-yl)-2-(pyridin-3-yl)-1,3-benzothiazol-6-amine], the chromatographic logP turned out to be 2.47 in data set [1] and 1.04 in data set [2].
Turning to `CSCCNC(=O)c1ccc2nc(-c3cncc(F)c3)sc2c1` [compound 70], the “efficacy (aphids killed)” value with Myzus persicae stood at 90%. Besides, the “logP[a]” value in data set [2] is 2.31.
`CSCCC(=O)N(C)c1ccc2nc(-c3cccnc3)sc2c1` [compound 78]: in the data set with Myzus persicae, the “efficacy (aphids killed)” value is given as 100%. In data set [2], the “logP[a]” value amounted to 2.08.
Turning to `CS(=O)(=O)CCNC(=O)c1ccc2nc(-c3cccnc3)sc2c1` [compound 71, N-[2-(Methylsulphonyl)ethyl]-2-(pyridin-3-yl)-1,3-benzothiazole-6-carboxamide], the pest or weed control at 500 g/ha in the data set with Myzus persicae (Myzus persicae, foliar, 144 h, read-out: efficacy (aphids killed)) came out at 100%. In data set [2], the chromatographic logP worked out at 1.19.
`O=C(NCC(F)(F)F)c1ccc2nc(-c3cncc(F)c3)sc2c1` [compound 64]: the “efficacy (aphids killed)” value with Myzus persicae is 90%. Further, the “logP[a]” value in data set [2] is recorded as 2.51.
The matching figures for `CON(C)C(=O)c1ccc2nc(-c3cncc(F)c3)sc2c1` [compound 66]: 100% and 2.16.
The matching figures for `CNC(=O)c1ccc2nc(-c3cncc(F)c3)sc2c1` [compound 58]: 100% and 1.67.
Consider `CN(C)C(=O)c1ccc2nc(-c3cccnc3)sc2c1` [compound 59], for which the “efficacy (aphids killed)” value in the data set on Myzus persicae is 100%. The “logP[a]” value in data set [2] was determined as 1.42.
Regarding `CCN(C)C(=O)c1ccc2nc(-c3cncc(F)c3)sc2c1` [compound 62], in the data set with Myzus persicae, the “efficacy (aphids killed)” value was 100%. Further, the “logP[a]” value in data set [2] is listed as 2.2.
In the same order, the values of `CCN(C)C(=O)c1ccc2nc(-c3cccnc3)sc2c1` [compound 61] are 100% and 1.71.
Regarding `O=C(Nc1ccc2nc(-c3cccnc3)sc2c1)c1cccc([S+]([O-])C(F)(F)F)c1` (stereo not shown) [compound 86], the “logP[a]” value in data set [2] is reported as 2.63.
Take `Cn1ccc(-c2ccc3nc(-c4cccnc4)sc3c2)n1` [compound 36]: in data set [1], the “logP[b]” value came to 2.03. Moreover, the “logP[a]” value in data set [2] is given as 2.05.
On to `CC(Nc1ccc2nc(-c3cccnc3)sc2c1)c1ccccc1` (stereo not shown) [compound 17], for which the chromatographic logP in data set [1] amounted to 3.33; in data set [2], 3.23.
For `c1cncc(-c2nc3ccc(-n4cncn4)cc3s2)c1` [compound 31, 2-(Pyridin-3-yl)-6-(1H-1,2,4-triazol-1-yl)-1,3-benzothiazole], the chromatographic logP in data set [1] came to 1.63.
Take `CC[S+]([O-])c1ccccc1Nc1ccc2nc(-c3cccnc3)sc2c1` (stereo not shown) [compound 23]: in data set [1], the “logP[b]” value amounted to 2.24. Moreover, the “logP[a]” value in data set [2] stood at 2.25.
Compound `O=C(Nc1cccc(SC(F)(F)F)c1)c1ccc2nc(-c3cncc(F)c3)sc2c1` [compound 74, 2-(5-Fluoropyridin-3-yl)-N-{3-[(trifluoromethyl)sulphanyl]phenyl}-1,3-benzothiazole-6-carboxamide] displayed a chromatographic logP in data set [2] of 4.29.
Consider `CCC(=O)N(C)c1ccc2nc(-c3cccnc3)sc2c1` [compound 76, N-Methyl-N-[2-(pyridin-3-yl)-1,3-benzothiazol-6-yl]propanamide], for which the chromatographic logP in data set [2] is 1.84.
For the compound “5-(Ethylsulphanyl)-4-methyl-2-[2-(pyridin-3-yl)-1,3-benzothiazol-6-yl]-2,4-dihydro-33H-1,2,4-triazol-3-one [compound 52]”, in data set [1], the “logP[b]” value came out at 2.97. For the same compound, the “logP[a]” value in data set [2] was determined as 2.84.
With `O=C(NCC(F)(F)F)c1ccc2nc(-c3cccnc3)sc2c1` [compound 63], the “logP[a]” value in data set [2] is listed as 2.02.
For the compound `COc1nn(-c2ccc3nc(-c4cccnc4)sc3c2)c(=O)n1C` [compound 50], the “efficacy (aphids killed)” value in the data set with Myzus persicae turned out to be 90%.
For the compound `Fc1ccccc1-c1ccc2nc(-c3cccnc3)sc2c1` [compound 5], the “logP[b]” value in data set [1] stood at 3.78. Moreover, the “logP[a]” value in data set [2] was 3.7.
In the same order, the values of `c1ccc(CNc2ccc3nc(-c4cccnc4)sc3c2)cc1` [compound 16] are 3.12 and 2.91.
In the same order, the values of `CCSc1ccccc1Nc1ccc2nc(-c3cccnc3)sc2c1` [compound 22] are 4.44 and 4.32.
The matching figures for `c1cncc(-c2nc3ccc(NCC4CC4)cc3s2)c1` [compound 14]: 2.94 and 2.5.
Consider `c1cncc(-c2nc3ccc(-n4cccn4)cc3s2)c1` [compound 26], for which the “logP[b]” value in data set [1] is listed as 2.2.
For the compound `CSCc1nn(-c2ccc3nc(-c4cccnc4)sc3c2)c(=O)n1C` [compound 55, 4-Methyl-5-[(methylsulphanyl)methyl]-2-[2-(pyridin-3-yl)-1,3-benzothiazol-6-yl]-2,4-dihydro-3H-1,2,4-triazol-3-one], the chromatographic logP in data set [1] worked out at 2.36; in data set [2] it was 2.23.
Regarding `Cn1c(OCC(F)(F)F)nn(-c2ccc3nc(-c4cccnc4)sc3c2)c1=O` [compound 53], the “logP[b]” value in data set [1] amounted to 2.88. The “logP[a]” value in data set [2] turned out to be 2.8.
`c1cncc(-c2nc3ccc(N4CCOCC4)cc3s2)c1` [compound 15, 6-(Morpholin-4-yl)-2-(pyridin-3-yl)-1,3-benzothiazole]: the chromatographic logP in data set [1] is 2.14; in data set [2], 2.
With `Ic1ccc2nc(-c3cccnc3)sc2c1` [I-a-2, 6-Iodo-2-(pyridin-3-yl)-1,3-benzothiazole], the chromatographic logP in data set [1] was 3.39; in data set [2], 3.37.
Compound `O=C(Nc1ccc2nc(-c3cncc(F)c3)sc2c1)c1cccc([S+]([O-])C(F)(F)F)c1` (stereo not shown) [compound 87, N-[2-(5-Fluoropyridin-3-yl)-1,3-benzothiazol-6-yl]-3-[(trifluoromethyl)sulphinyl]benzamide] registered a chromatographic logP in data set [2] of 3.27.
For `CN(C(=O)C1CCS(=O)(=O)C1)c1ccc2nc(-c3cncc(F)c3)sc2c1` (stereo not shown) [compound 83], the “logP[a]” value in data set [2] was found to be 1.94.
Take `Cc1cc(F)c(Nc2ccc3nc(-c4cccnc4)sc3c2)cc1[S+]([O-])CC(F)(F)F` (stereo not shown) [compound 21, N-{2-Fluoro-4-methyl-5-[(2,2,2-trifluoroethyl)sulphinyl]phenyl}-2-(pyridin-3-yl)-1,3-benzothiazol-6-amine]: the chromatographic logP in data set [1] worked out at 2.9; in data set [2] it was 2.85.
In the case of `Clc1ccccc1-c1ccc2nc(-c3cccnc3)sc2c1` [compound 6], in data set [1], the “logP[b]” value came out at 4.2. The “logP[a]” value in data set [2] amounted to 4.05.
Regarding `Cn1cncc(-c2ccc3nc(-c4cccnc4)sc3c2)c1=O` [compound 43], the “logP[b]” value in data set [1] amounted to 1.51. Moreover, the “logP[a]” value in data set [2] came to 1.34.
As to `CC1(C)OB(c2ccc3nc(-c4cccnc4)sc3c2)OC1(C)C` [I-h-1, 2-(Pyridin-3-yl)-6-(4,4,5,5-tetramethyl-1,3,2-dioxaborolan-2-yl)-1,3-benzothiazole], the chromatographic logP in data set [1] turned out to be 4.14; in data set [2] it was 4.03.
Take `CS(=O)(=O)CCNC(=O)c1ccc2nc(-c3cncc(F)c3)sc2c1` [compound 72]: the “efficacy (aphids killed)” value in the data set with Myzus persicae is recorded as 90%.
With `CSCn1cc(-c2ccc3nc(-c4cccnc4)sc3c2)cn1` [compound 38, 6-{1-[(Methylsulphanyl)methyl]-1H-pyrazol-4-yl}-2-(pyridin-3-yl)-1,3-benzothiazole], the chromatographic logP was found to be 2.54 in data set [1] and 2.4 in data set [2].
Turning to `Cn1c(SCC(F)(F)F)nn(-c2ccc3nc(-c4cccnc4)sc3c2)c1=O` [compound 54], the “logP[b]” value in data set [1] is listed as 2.91. In data set [2], the “logP[a]” value is on record as 2.84.
For `CN(C(=O)c1cccc(SC(F)(F)F)c1)c1ccc2nc(-c3cccnc3)sc2c1` [compound 84], the “logP[a]” value in data set [2] worked out at 3.24.
Same read-out and setting: the result for `O=C(Nc1cccc(SC(F)(F)F)c1)c1ccc2nc(-c3cccnc3)sc2c1` [compound 73] reads 3.76.
On to `Cc1cc(C)c([S+]([O-])CC(F)(F)F)cc1Nc1ccc2nc(-c3cccnc3)sc2c1` (stereo not shown) [compound 19, N-{2,4-Dimethyl-5-[(2,2,2-trifluoroethyl)sulphinyl]phenyl}-2-(pyridin-3-yl)-1,3-benzothiazol-6-amine], for which, in data set [1], the chromatographic logP came to 3.07.
In data set [2], `CN(C(=O)c1cccc(SC(F)(F)F)c1)c1ccc2nc(-c3cncc(F)c3)sc2c1` [compound 85, N-[2-(5-Fluoropyridin-3-yl)-1,3-benzothiazol-6-yl]-N-methyl-3-[(trifluoromethyl)sulphanyl]benzamide] came in with a chromatographic logP of 3.88.
Still for that read-out and setting: then `O=C(Nc1cccc([S+]([O-])C(F)(F)F)c1)c1ccc2nc(-c3cncc(F)c3)sc2c1` (stereo not shown) [compound 75, 2-(5-Fluoropyridin-3-yl)-N-{3-[(trifluoromethyl)sulphinyl]phenyl}-1,3-benzothiazole-6-carboxamide], with 3.26.
